Measured values published in publication PMC5564600 (Oncotarget, 2017).

Experiments:
Assay in all cases: biochemical
Type in all cases: binding
panel of 442 kinases [1] = target: T1, panel of 442 kinases (Homo sapiens, UniProt P07949); conditions: kinase RET; for remaining activity at 1 µM: read-out: RET (% of control at 1 µM)
T1 construct: purchased Ambit Biosciences (scanMAXX KINOMEscan)

panel of 442 kinases [2] = target: T2, panel of 442 kinases (Homo sapiens, UniProt P42684); conditions: ABL2; for remaining activity at 1 µM: read-out: % of control at 1 µM
T2 construct: purchased Ambit Biosciences (scanMAXX KINOMEscan)

panel of 442 kinases [3] = target: T3, panel of 442 kinases (Homo sapiens, UniProt P78368); conditions: CSNK1G2; for remaining activity at 1 µM: read-out: % of control at 1 µM
T3 construct: purchased Ambit Biosciences (scanMAXX KINOMEscan)

panel of 442 kinases [4] = target: T4, panel of 442 kinases (Homo sapiens, UniProt Q06187); conditions: BTK; for remaining activity at 1 µM: read-out: % of control at 1 µM
T4 construct: purchased Ambit Biosciences (scanMAXX KINOMEscan)

panel of 442 kinases [5] = target: T5, panel of 442 kinases (Homo sapiens, UniProt Q08881); conditions: kinase ITK; for remaining activity at 1 µM: read-out: % of control at 1 µM
T5 construct: purchased Ambit Biosciences (scanMAXX KINOMEscan)
T5 sequence (Q08881 1-620): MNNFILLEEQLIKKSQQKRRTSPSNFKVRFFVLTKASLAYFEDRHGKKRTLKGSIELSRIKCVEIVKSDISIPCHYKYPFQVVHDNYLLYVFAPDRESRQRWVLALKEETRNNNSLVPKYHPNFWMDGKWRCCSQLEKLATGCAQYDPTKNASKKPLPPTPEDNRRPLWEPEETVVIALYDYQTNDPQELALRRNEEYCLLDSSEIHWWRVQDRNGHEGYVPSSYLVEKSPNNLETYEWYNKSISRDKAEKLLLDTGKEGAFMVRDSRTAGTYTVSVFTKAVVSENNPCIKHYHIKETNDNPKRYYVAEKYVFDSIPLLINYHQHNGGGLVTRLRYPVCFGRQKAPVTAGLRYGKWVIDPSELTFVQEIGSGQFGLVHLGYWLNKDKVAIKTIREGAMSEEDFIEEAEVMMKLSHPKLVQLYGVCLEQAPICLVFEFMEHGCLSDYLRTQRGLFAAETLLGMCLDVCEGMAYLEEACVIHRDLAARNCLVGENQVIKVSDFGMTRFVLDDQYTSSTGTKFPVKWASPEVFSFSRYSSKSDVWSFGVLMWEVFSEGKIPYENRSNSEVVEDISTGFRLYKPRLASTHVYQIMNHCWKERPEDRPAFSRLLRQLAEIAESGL

panel of 442 kinases [6] = target: T6, panel of 442 kinases (Homo sapiens, UniProt Q14012); conditions: CAMK1; for remaining activity at 1 µM: read-out: % of control at 1 µM
T6 construct: purchased Ambit Biosciences (scanMAXX KINOMEscan)

panel of 442 kinases [7] = target: T7, panel of 442 kinases (Homo sapiens, UniProt Q52WX2); conditions: kinase SBK1; for remaining activity at 1 µM: read-out: SBK1 (% of control at 1 µM)
T7 construct: purchased Ambit Biosciences (scanMAXX KINOMEscan)

panel of 442 kinases [8] = target: T8, panel of 442 kinases (Homo sapiens, UniProt Q96NX5); conditions: CAMK1G; for remaining activity at 1 µM: read-out: % of control at 1 µM
T8 construct: purchased Ambit Biosciences (scanMAXX KINOMEscan)

panel of 442 kinases [9] = target: T9, panel of 442 kinases (Homo sapiens, UniProt Q9BQI3); conditions: EIF2AK1; for remaining activity at 1 µM: read-out: % of control at 1 µM
T9 construct: purchased Ambit Biosciences (scanMAXX KINOMEscan)

panel of 442 kinases [10] = target: T10, panel of 442 kinases (Homo sapiens, UniProt Q9BWU1); conditions: CDK11; for remaining activity at 1 µM: read-out: % of control at 1 µM
T10 construct: purchased Ambit Biosciences (scanMAXX KINOMEscan)

panel of 442 kinases [11] = target: T11, panel of 442 kinases (Homo sapiens, UniProt O00329); conditions: kinase PIK3CD; 1 µM; read-out: % of control at 1 µM
T11 construct: purchased Ambit Biosciences (scanMAXX KINOMEscan)
T11 sequence (O00329 1-1044): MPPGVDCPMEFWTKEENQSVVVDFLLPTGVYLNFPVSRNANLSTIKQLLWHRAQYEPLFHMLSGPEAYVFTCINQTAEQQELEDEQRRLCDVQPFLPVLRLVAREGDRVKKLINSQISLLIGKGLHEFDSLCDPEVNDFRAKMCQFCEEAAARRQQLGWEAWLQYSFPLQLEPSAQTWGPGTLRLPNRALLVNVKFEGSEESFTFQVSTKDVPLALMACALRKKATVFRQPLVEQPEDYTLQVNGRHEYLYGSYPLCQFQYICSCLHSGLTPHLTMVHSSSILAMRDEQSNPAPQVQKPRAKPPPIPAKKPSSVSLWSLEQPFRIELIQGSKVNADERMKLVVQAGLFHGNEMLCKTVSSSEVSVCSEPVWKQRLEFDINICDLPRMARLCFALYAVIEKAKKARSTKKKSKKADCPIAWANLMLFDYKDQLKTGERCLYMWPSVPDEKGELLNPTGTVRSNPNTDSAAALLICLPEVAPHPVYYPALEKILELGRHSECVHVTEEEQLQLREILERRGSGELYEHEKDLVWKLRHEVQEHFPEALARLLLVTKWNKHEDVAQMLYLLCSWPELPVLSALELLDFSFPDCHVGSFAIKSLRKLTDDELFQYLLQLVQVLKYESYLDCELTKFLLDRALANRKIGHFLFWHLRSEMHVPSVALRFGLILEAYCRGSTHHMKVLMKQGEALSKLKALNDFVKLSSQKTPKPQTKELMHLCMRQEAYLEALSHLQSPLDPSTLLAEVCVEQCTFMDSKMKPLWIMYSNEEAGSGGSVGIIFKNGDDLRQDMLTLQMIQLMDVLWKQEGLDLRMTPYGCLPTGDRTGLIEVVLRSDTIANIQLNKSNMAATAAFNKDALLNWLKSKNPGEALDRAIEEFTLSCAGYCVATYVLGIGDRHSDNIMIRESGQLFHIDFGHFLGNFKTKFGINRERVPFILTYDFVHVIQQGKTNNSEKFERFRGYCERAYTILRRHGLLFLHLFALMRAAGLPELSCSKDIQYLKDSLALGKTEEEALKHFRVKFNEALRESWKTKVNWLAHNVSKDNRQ

[12] = 10 µM, read-out: % of control at 10 µM

T9 sequence (Q9BQI3 whole entry): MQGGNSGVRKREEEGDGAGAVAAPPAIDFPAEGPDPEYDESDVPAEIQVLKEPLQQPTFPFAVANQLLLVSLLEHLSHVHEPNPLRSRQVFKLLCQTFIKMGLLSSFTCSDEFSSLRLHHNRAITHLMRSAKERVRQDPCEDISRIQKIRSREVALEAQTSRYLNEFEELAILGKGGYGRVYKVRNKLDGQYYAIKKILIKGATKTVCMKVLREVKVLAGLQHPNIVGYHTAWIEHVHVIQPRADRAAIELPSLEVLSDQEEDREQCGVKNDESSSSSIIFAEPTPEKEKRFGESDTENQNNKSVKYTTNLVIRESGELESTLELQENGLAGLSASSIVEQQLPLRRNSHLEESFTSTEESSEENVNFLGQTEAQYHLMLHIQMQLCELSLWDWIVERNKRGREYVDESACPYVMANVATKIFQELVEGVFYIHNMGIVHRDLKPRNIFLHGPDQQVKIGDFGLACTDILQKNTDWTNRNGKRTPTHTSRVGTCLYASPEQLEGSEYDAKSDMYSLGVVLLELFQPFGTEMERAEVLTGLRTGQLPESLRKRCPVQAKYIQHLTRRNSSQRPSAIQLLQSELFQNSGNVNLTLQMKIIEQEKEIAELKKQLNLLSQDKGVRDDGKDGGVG
T4 sequence (Q06187 whole entry): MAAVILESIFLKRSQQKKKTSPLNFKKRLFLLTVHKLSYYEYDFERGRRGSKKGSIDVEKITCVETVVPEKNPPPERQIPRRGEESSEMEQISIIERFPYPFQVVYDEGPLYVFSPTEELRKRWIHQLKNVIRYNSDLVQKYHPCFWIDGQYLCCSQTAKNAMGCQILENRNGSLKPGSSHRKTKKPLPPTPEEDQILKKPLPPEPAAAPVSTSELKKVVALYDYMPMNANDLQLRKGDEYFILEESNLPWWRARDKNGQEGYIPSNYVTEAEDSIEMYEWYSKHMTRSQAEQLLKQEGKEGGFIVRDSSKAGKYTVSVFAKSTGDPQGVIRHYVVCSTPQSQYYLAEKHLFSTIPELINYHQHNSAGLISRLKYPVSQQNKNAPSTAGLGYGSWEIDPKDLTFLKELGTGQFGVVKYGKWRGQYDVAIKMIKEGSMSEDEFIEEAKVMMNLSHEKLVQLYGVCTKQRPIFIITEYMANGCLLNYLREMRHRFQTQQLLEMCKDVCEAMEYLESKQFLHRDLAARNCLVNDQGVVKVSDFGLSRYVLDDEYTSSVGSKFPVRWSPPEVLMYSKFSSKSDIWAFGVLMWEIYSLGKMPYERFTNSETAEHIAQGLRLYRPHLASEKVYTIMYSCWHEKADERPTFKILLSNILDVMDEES
T3 sequence (P78368 whole entry): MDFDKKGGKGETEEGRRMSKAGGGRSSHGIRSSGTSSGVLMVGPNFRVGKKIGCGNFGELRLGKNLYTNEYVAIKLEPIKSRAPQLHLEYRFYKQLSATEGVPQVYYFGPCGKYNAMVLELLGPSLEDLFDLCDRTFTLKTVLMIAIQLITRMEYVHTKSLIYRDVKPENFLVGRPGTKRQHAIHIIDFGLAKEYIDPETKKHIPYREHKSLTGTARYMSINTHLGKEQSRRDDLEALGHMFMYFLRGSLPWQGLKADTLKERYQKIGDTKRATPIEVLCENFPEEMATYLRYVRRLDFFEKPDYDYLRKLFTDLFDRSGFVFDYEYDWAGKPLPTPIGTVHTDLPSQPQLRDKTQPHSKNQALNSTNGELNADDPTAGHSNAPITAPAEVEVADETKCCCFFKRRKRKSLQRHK
T7 sequence (Q52WX2 whole entry): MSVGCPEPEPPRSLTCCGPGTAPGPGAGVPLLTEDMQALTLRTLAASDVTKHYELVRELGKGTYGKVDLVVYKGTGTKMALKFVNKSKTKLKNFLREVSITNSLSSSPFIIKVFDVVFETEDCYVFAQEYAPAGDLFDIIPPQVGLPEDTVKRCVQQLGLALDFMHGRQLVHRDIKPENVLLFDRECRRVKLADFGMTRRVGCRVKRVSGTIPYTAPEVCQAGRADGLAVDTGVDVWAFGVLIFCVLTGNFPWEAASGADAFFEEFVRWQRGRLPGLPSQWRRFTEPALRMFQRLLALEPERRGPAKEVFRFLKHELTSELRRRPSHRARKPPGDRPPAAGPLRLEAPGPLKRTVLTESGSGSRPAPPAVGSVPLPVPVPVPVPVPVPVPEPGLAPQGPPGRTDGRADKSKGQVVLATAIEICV
T1 sequence (P07949 29-1114): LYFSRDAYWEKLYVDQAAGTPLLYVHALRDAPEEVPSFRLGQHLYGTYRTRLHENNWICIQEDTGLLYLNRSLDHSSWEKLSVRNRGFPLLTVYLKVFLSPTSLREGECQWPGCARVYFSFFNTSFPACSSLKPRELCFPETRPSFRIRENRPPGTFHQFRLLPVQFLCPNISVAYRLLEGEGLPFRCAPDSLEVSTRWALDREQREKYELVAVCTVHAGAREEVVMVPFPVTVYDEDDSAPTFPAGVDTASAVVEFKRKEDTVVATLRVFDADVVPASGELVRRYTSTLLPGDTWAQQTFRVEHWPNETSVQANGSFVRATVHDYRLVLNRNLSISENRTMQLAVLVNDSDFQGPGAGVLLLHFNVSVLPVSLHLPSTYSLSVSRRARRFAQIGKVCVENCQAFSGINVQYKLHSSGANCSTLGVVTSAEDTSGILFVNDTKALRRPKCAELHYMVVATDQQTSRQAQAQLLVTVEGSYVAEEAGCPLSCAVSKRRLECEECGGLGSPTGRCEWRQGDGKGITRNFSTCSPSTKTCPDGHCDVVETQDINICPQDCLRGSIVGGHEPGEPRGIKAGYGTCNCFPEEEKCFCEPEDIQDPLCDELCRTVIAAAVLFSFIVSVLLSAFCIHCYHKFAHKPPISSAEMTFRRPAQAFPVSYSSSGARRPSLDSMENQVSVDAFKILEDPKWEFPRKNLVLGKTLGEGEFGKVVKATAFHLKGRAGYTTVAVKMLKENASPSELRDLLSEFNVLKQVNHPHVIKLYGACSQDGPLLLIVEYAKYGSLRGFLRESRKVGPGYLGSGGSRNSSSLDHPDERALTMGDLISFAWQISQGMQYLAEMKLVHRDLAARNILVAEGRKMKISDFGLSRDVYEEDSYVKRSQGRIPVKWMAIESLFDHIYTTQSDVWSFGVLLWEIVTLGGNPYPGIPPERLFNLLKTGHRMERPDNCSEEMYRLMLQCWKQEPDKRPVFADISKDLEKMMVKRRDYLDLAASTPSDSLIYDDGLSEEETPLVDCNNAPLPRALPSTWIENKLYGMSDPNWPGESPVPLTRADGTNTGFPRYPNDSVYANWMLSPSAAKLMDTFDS
T2 sequence (P42684 whole entry): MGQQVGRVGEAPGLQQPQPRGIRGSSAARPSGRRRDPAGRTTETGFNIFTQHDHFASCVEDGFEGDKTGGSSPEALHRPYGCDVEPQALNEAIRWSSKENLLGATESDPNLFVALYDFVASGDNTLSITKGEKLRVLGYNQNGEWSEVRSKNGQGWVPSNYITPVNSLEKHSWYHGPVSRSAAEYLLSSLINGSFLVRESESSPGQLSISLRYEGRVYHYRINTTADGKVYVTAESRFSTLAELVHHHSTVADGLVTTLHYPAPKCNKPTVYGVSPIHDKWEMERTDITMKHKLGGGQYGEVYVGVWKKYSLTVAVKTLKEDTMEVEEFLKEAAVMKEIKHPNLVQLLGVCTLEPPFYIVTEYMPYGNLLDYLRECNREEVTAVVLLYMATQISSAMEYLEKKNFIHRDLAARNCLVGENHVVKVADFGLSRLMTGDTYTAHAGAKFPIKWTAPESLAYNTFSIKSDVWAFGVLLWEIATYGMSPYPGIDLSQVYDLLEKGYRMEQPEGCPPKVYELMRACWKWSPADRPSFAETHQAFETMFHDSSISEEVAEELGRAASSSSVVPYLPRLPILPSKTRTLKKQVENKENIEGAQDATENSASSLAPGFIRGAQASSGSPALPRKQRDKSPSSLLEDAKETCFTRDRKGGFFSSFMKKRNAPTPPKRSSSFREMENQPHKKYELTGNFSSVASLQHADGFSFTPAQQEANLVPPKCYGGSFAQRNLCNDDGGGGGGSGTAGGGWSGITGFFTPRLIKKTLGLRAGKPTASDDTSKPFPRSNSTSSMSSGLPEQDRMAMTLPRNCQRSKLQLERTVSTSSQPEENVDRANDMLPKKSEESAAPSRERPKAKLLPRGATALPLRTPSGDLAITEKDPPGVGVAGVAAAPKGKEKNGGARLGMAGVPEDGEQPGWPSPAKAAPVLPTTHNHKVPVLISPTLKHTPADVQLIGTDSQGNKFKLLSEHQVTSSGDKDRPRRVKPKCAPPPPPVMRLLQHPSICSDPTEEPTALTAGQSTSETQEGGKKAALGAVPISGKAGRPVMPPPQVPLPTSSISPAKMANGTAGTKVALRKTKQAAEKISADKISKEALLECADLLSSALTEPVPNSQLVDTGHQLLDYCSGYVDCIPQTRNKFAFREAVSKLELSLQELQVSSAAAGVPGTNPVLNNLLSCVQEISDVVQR
T8 sequence (Q96NX5 whole entry): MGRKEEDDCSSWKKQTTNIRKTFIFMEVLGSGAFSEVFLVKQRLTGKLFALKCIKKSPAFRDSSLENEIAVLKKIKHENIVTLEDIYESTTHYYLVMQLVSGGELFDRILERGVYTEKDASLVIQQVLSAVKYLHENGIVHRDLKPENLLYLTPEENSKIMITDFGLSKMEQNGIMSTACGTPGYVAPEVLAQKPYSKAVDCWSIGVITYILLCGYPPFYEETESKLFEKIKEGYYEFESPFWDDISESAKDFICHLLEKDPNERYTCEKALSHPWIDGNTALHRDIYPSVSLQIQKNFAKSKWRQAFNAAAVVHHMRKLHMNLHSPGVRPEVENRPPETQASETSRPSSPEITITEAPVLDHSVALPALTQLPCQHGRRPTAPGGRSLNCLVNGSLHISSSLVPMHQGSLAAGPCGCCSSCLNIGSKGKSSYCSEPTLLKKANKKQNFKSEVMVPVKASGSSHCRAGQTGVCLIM

| SMILES | remaining activity at 1 µM (panel of 442 kinases [1]) [%] | remaining activity at 1 µM (panel of 442 kinases [2]) [%] | remaining activity at 1 µM (panel of 442 kinases [3]) [%] | remaining activity at 1 µM (panel of 442 kinases [4]) [%] | remaining activity at 1 µM (panel of 442 kinases [5]) [%] | remaining activity at 1 µM (panel of 442 kinases [6]) [%] | remaining activity at 1 µM (panel of 442 kinases [7]) [%] | remaining activity at 1 µM (panel of 442 kinases [8]) [%] | remaining activity at 1 µM (panel of 442 kinases [9]) [%] | remaining activity at 1 µM (panel of 442 kinases [10]) [%] | remaining activity at 1 µM (panel of 442 kinases [11]) [%] | also measured |
| --- | --- | --- | --- | --- | --- | --- | --- | --- | --- | --- | --- | --- |
| Nc1cc(C(F)(F)F)c(-c2cc(N3CCOCC3)nc(N3CCOCC3)n2)cn1 [Buparlisib] | 97 | 100 | 100 | 71 | 100 | 100 | 94 | 100 | 92 | 100 |  | remaining activity at 10 µM (panel of 442 kinases [1]; 10 µM, read-out: RET (% of control at 10 µM)): 100%; remaining activity at 10 µM (panel of 442 kinases [2]; [12]): 100%; remaining activity at 10 µM (panel of 442 kinases [3]; [12]): 100%; remaining activity at 10 µM (panel of 442 kinases [4]; [12]): 89%; remaining activity at 10 µM (panel of 442 kinases [5]; [12]): 100%; remaining activity at 10 µM (panel of 442 kinases [6]; [12]): 100%; remaining activity at 10 µM (panel of 442 kinases [7]; 10 µM, read-out: SBK1 (% of control at 10 µM)): 100%; remaining activity at 10 µM (panel of 442 kinases [8]; [12]): 100%; remaining activity at 10 µM (panel of 442 kinases [9]; [12]): 100%; remaining activity at 10 µM (panel of 442 kinases [10]; [12]): 98% |
| Cn1c(=O)n(-c2ccc(C(C)(C)C#N)cc2)c2c3cc(-c4cnc5ccccc5c4)ccc3ncc21 [Dactolisib, 2-methyl-2-[4-(3-methyl-2-oxo-8-quinolin-3-yl-2,3-dihydroimidazo[4,5-c]quinolin-1-yl)-phenyl] propionitrile] | 100 | 100 | 80 |  | 91 | 78 | 92 | 87 | 94 | 88 | 12 |  |
| COc1ncc(-c2ccc3nccc(-c4ccnnc4)c3c2)cc1NS(=O)(=O)c1ccc(F)cc1F [Omipalisib] | 94 | 100 | 100 | 100 | 86 | 100 | 100 | 100 | 100 | 64 | 0 |  |
| FC(F)c1nc2ccccc2n1-c1nc(N2CCOCC2)nc(N2CCOCC2)n1 [ZSTK474, 2-(difluoromethyl)-1-[4,6-di(4-morpholinyl)-1,3,5-triazin-2-yl]-1H-benzimidazole] | 100 | 100 | 90 | 100 | 97 | 100 | 100 | 91 | 77 | 88 | 0 |  |
